Experiment [1] addresses T1, TRPM8 (Mus musculus, UniProt Q8R4D5). As to the kind of experiment: whole-cell voltage clamp of menthol-evoked currents in mTRPM8-transfected HEK293T cells; also Fura-2 calcium imaging. It is filed as cell-based.
The target in experiment [2] is T1, TRPM8. As to the kind of experiment: whole-cell voltage clamp (V1/[…] shift with […] menthol) and Fura-2 calcium imaging ([…]) in mTRPM8-transfected HEK293T cells. Format: cell-based.

T1 sequence (Q8R4D5 whole entry): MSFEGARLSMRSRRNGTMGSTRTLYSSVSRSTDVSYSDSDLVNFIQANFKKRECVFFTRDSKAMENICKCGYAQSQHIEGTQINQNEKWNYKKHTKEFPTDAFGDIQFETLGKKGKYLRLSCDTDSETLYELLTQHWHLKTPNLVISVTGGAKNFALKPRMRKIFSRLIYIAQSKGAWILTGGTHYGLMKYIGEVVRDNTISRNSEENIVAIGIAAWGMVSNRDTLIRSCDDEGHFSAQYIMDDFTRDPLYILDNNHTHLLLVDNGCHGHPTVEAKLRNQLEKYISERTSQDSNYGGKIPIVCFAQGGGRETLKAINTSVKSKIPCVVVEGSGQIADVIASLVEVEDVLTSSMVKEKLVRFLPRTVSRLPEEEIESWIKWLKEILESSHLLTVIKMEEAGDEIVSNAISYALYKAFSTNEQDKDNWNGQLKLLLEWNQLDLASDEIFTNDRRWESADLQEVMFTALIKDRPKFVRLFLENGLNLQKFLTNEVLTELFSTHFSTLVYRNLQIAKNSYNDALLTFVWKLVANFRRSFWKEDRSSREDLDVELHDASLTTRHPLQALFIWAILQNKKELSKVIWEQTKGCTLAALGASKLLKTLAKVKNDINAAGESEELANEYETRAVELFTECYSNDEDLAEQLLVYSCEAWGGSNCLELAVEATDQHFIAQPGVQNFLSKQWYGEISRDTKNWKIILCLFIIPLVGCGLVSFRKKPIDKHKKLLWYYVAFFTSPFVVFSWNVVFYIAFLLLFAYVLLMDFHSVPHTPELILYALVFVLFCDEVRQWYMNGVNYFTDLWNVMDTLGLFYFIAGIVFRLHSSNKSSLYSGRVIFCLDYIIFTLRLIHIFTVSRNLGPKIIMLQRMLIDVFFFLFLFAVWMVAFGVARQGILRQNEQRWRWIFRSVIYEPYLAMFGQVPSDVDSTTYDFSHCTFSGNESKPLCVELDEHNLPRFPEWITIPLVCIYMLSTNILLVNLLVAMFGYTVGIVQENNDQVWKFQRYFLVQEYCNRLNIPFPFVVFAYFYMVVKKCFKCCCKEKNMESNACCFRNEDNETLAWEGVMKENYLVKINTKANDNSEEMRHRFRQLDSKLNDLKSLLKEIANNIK

As for `COc1cc(CN(CCN)C(=O)OC(C)c2ccccc2)ccc1OCc1ccccc1` (centres unmarked) [PBMC, 1-phenylethyl-4-(benzyloxy)-3-methoxybenzyl(2-aminoethyl)carbamate], the IC50 in experiment [1] came to 0.4 nM.

On to `CC1CCC(C(C)C)C(O)C1` (centres unmarked) [menthol], for which the “V1/2 shift with 1 mM menthol” value in experiment [2] was found to be 79.1±21.1 mV.

The term IC50 denotes the concentration that inhibits the measured activity by half.

These data come from PMC3184174, “Pharmacological Blockade of TRPM8 Ion Channels Alters Cold and Cold Pain Responses in Mice” (PLoS ONE, 2011).
